#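 Exposure lasted 48 hours, with cells grown in 96-well plates and compounds tested at five concentrations. At the GI50, growth is halved. TGI: total growth inhibition.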
# Columns and labels:
# Experiment in all cases: NCI anticancer screen, dose series, 48 h
# MDA-MB-435 = system: MDA-MB-435
# TK-10 renal = system: TK-10 renal
# T-47D breast = system: T-47D breast
# MDA-MB-231 breast = system: MDA-MB-231 breast
# MDA-MB-468 breast = system: MDA-MB-468 breast
# A549 NSCLC = system: A549 NSCLC
# CCRF-CEM leukemia = system: CCRF-CEM leukemia
# HCC-2998 colon = system: HCC-2998 colon
# MCF7 breast = system: MCF7 breast
# M14 melanoma = system: M14 melanoma
# UACC-257 melanoma = system: UACC-257 melanoma
# NCI-H23 lung = system: NCI-H23 lung
# HS 578T breast = system: HS 578T breast
# HL-60(TB) leukemia = system: HL-60(TB) leukemia
# OVCAR-4 ovarian = system: OVCAR-4 ovarian
# HOP-62 NSCLC = system: HOP-62 NSCLC
# K-562 leukemia = system: K-562 leukemia
# SN12C renal = system: SN12C renal
# ACHN renal = system: ACHN renal
# U251 CNS = system: U251 CNS
# SNB-75 CNS = system: SNB-75 CNS
# HT29 colon = system: HT29 colon
# HCT-116 colon = system: HCT-116 colon
# UACC-62 melanoma = system: UACC-62 melanoma
# DU-145 prostate = system: DU-145 prostate
# SK-MEL-5 melanoma = system: SK-MEL-5 melanoma
# SF-539 CNS = system: SF-539 CNS
# HCT-15 colon = system: HCT-15 colon
# OVCAR-5 ovarian = system: OVCAR-5 ovarian
# MOLT-4 leukemia = system: MOLT-4 leukemia
# SNB-19 CNS = system: SNB-19 CNS
# OVCAR-3 ovarian = system: OVCAR-3 ovarian
# BT-549 breast = system: BT-549 breast
# PC-3 prostate = system: PC-3 prostate
# NCI-H460 lung = system: NCI-H460 lung
# A498 renal = system: A498 renal
# NCI-H522 lung = system: NCI-H522 lung
# SR leukemia = system: SR leukemia
# SK-MEL-28 melanoma = system: SK-MEL-28 melanoma
# 786-0 renal = system: 786-0 renal
# SF-295 CNS = system: SF-295 CNS
# NCI-H226 lung = system: NCI-H226 lung
# SK-OV-3 ovarian = system: SK-OV-3 ovarian
# IGROV1 ovarian = system: IGROV1 ovarian
# LOX IMVI melanoma = system: LOX IMVI melanoma
# EKVX NSCLC = system: EKVX NSCLC
# MALME-3M melanoma = system: MALME-3M melanoma
# COLO 205 colon = system: COLO 205 colon
# KM12 colon = system: KM12 colon
# SK-MEL-2 melanoma = system: SK-MEL-2 melanoma
# HOP-92 NSCLC = system: HOP-92 NSCLC
# CAKI-1 renal = system: CAKI-1 renal
# UO-31 renal = system: UO-31 renal
# SF-268 CNS = system: SF-268 CNS
# RPMI-8226 leukemia = system: RPMI-8226 leukemia
# OVCAR-8 ovarian = system: OVCAR-8 ovarian
# RXF 393 renal = system: RXF 393 renal
# SW-620 colon = system: SW-620 colon
# NCI/ADR-RES ovarian = system: NCI/ADR-RES ovarian
structure (smiles),measurement,setting,value
O=C(CSc1nnc(-c2ccc(-c3nc4ccccc4[nH]3)cc2)o1)Nc1ccc(Cl)cc1,GI50,MDA-MB-435,3.3 µM
same,TGI,MDA-MB-435,13.5 µM
same,GI50,TK-10 renal,24.8 µM
same,TGI,TK-10 renal,66.9 µM
same,GI50,T-47D breast,9.84 µM
same,TGI,T-47D breast,44.1 µM
same,GI50,MDA-MB-231 breast,11.4 µM
same,TGI,MDA-MB-231 breast,24 µM
same,GI50,MDA-MB-468 breast,14.7 µM
same,TGI,MDA-MB-468 breast,29.6 µM
same,GI50,A549 NSCLC,3.65 µM
same,TGI,A549 NSCLC,16.4 µM
same,GI50,CCRF-CEM leukemia,5.58 µM
same,TGI,CCRF-CEM leukemia,33.1 µM
same,GI50,HCC-2998 colon,24.5 µM
same,TGI,HCC-2998 colon,> 100 µM
same,GI50,MCF7 breast,3.73 µM
same,TGI,MCF7 breast,19.3 µM
same,GI50,M14 melanoma,4.9 µM
same,TGI,M14 melanoma,18.3 µM
same,GI50,UACC-257 melanoma,9.3 µM
same,TGI,UACC-257 melanoma,26.9 µM
same,GI50,NCI-H23 lung,7.12 µM
same,TGI,NCI-H23 lung,23.2 µM
same,GI50,HS 578T breast,11.9 µM
same,TGI,HS 578T breast,42.6 µM
same,GI50,HL-60(TB) leukemia,11.1 µM
same,TGI,HL-60(TB) leukemia,> 100 µM
same,GI50,OVCAR-4 ovarian,9.74 µM
same,TGI,OVCAR-4 ovarian,22.2 µM
same,GI50,HOP-62 NSCLC,5.74 µM
same,TGI,HOP-62 NSCLC,22.1 µM
same,GI50,K-562 leukemia,4.59 µM
same,TGI,K-562 leukemia,> 100 µM
same,GI50,SN12C renal,10.1 µM
same,TGI,SN12C renal,22.3 µM
same,GI50,ACHN renal,5.05 µM
same,TGI,ACHN renal,17.9 µM
same,GI50,U251 CNS,15.4 µM
same,TGI,U251 CNS,30.8 µM
same,GI50,SNB-75 CNS,2.44 µM
same,TGI,SNB-75 CNS,14.5 µM
same,GI50,HT29 colon,6.62 µM
same,TGI,HT29 colon,30 µM
same,GI50,HCT-116 colon,4.14 µM
same,TGI,HCT-116 colon,17.3 µM
same,GI50,UACC-62 melanoma,11.4 µM
same,TGI,UACC-62 melanoma,23.9 µM
same,GI50,DU-145 prostate,4.62 µM
same,TGI,DU-145 prostate,17.4 µM
same,GI50,SK-MEL-5 melanoma,12.6 µM
same,TGI,SK-MEL-5 melanoma,26.7 µM
same,GI50,SF-539 CNS,5.26 µM
same,TGI,SF-539 CNS,17.9 µM
same,GI50,HCT-15 colon,6.16 µM
same,TGI,HCT-15 colon,23.9 µM
same,GI50,OVCAR-5 ovarian,14.8 µM
same,TGI,OVCAR-5 ovarian,36.6 µM
same,GI50,MOLT-4 leukemia,4.42 µM
same,TGI,MOLT-4 leukemia,> 100 µM
same,GI50,SNB-19 CNS,14.6 µM
same,TGI,SNB-19 CNS,29.7 µM
same,GI50,OVCAR-3 ovarian,5.78 µM
same,TGI,OVCAR-3 ovarian,19.1 µM
same,GI50,BT-549 breast,3.4 µM
same,TGI,BT-549 breast,14 µM
same,GI50,PC-3 prostate,3.9 µM
same,TGI,PC-3 prostate,16.7 µM
same,GI50,NCI-H460 lung,2.93 µM
same,TGI,NCI-H460 lung,10.9 µM
same,GI50,A498 renal,18.6 µM
same,TGI,A498 renal,42.9 µM
same,GI50,NCI-H522 lung,4.94 µM
same,TGI,NCI-H522 lung,21.6 µM
same,GI50,SR leukemia,10.1 µM
same,TGI,SR leukemia,> 100 µM
same,GI50,SK-MEL-28 melanoma,4.02 µM
same,TGI,SK-MEL-28 melanoma,14.9 µM
same,GI50,786-0 renal,2.04 µM
same,TGI,786-0 renal,4.45 µM
same,GI50,SF-295 CNS,7.2 µM
same,TGI,SF-295 CNS,22 µM
same,GI50,NCI-H226 lung,2.5 µM
same,TGI,NCI-H226 lung,9.38 µM
same,GI50,SK-OV-3 ovarian,18.4 µM
same,TGI,SK-OV-3 ovarian,43.7 µM
same,GI50,IGROV1 ovarian,15.1 µM
same,TGI,IGROV1 ovarian,31.3 µM
same,GI50,LOX IMVI melanoma,1.94 µM
same,TGI,LOX IMVI melanoma,4.4 µM
same,GI50,EKVX NSCLC,10.8 µM
same,TGI,EKVX NSCLC,28.1 µM
same,GI50,MALME-3M melanoma,3.37 µM
same,TGI,MALME-3M melanoma,13.2 µM
same,GI50,COLO 205 colon,23 µM
same,TGI,COLO 205 colon,> 100 µM
same,GI50,KM12 colon,10.6 µM
same,TGI,KM12 colon,39.5 µM
same,GI50,SK-MEL-2 melanoma,15.9 µM
same,TGI,SK-MEL-2 melanoma,35.3 µM
same,GI50,HOP-92 NSCLC,5.06 µM
same,TGI,HOP-92 NSCLC,21.5 µM
same,GI50,CAKI-1 renal,3.51 µM
same,TGI,CAKI-1 renal,13.2 µM
same,GI50,UO-31 renal,13 µM
same,TGI,UO-31 renal,25.7 µM
same,GI50,SF-268 CNS,4.14 µM
same,TGI,SF-268 CNS,20 µM
same,GI50,RPMI-8226 leukemia,8.39 µM
same,TGI,RPMI-8226 leukemia,80.3 µM
same,GI50,OVCAR-8 ovarian,5.91 µM
same,TGI,OVCAR-8 ovarian,22.3 µM
same,GI50,RXF 393 renal,4.41 µM
same,TGI,RXF 393 renal,16.7 µM
same,GI50,SW-620 colon,3.58 µM
same,TGI,SW-620 colon,15.8 µM
same,GI50,NCI/ADR-RES ovarian,14.8 µM
same,TGI,NCI/ADR-RES ovarian,85.7 µM

# — PubChem BioAssay (NCI)
